Data reported in US20110144140A1, “PYRIDINYL-PYRIMIDINE DERIVATIVES USEFUL AS POTASSIUM CHANNEL MODULATING AGENTS” (priority 2006, published 2011).
Where a name gives a salt, the structure may show the parent alone.

Experiments:
hSK3 channels = target: T1, hSK3 channels (Homo sapiens, UniProt Q9UGI6); test: whole-cell patch-clamp recording of ionic current through SK channels, subtype 3, in HEK293 cells; type: cell-based; conditions: HEK293 cells expressing hSK3, baseline current at −75 mV, free Ca2+ 0.3-0.4 μM
T1 construct: expressed in transfected cells; host or cells: HEK293
T1 sequence (Q9UGI6 whole entry): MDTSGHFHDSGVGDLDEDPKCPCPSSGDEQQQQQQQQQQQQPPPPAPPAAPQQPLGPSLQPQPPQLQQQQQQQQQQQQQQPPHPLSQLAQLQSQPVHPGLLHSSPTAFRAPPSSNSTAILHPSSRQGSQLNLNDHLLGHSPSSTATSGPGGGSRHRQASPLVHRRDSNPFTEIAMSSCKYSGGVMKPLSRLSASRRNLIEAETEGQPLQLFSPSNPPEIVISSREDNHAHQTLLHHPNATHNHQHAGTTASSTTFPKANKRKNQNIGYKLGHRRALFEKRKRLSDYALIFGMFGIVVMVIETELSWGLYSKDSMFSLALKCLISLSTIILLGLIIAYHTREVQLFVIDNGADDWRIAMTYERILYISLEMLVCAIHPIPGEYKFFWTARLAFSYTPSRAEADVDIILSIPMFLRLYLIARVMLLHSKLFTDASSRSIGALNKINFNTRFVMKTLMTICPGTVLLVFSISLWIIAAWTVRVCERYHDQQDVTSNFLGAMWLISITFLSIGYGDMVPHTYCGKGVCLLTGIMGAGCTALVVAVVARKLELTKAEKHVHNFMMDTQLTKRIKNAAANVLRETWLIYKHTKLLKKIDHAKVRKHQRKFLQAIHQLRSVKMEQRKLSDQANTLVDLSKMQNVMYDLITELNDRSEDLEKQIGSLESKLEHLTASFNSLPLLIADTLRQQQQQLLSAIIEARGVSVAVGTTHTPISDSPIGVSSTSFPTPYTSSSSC
Procedure: The ionic current through small-conductance Ca^2+-activated K^+ channels (SK channels, subtype 3) is recorded using the whole-cell configuration of the patch-clamp technique.
HEK293 tissue culture cells expressing hSK3 channels were grown in DMEM (Dulbecco's Modified Eagle Medium) supplemented with 10% FCS (foetal calf serum) at 37° C. in 5% CO2. At 60-80% confluency, cells were harvested by trypsin treatment and seeded on cover slips.
Experiments are carried out on one of several patch-clamp set-ups. Cells plated on coverslips are placed in a 15 μl perfusion chamber (flowrate ˜1 ml/min) mounted on an IMT-2 microscope. The microscopes are placed on vibration-free tables in grounded Faraday cages. All experiments are performed at room temperature (20-22° C.). […] Data are stored directly on the hard-disk and analysed by IGOR software (Wavemetrics, Lake Oswega, Oreg., USA).
The whole-cell configuration of the patch-clamp technique is applied. […] Cell capacitance is electronically compensated and the resistance between the pipette and the cell interior (the series resistance, Rs) is measured and compensated for. […]
The intracellular (pipette) solution contained: 154 mM KCl, 10 mM HEPES, 10 mM EGTA. Concentrations of CaCl2 and MgCl2 needed to obtain the desired free concentrations of Ca^2+ (0.3-0.4 μM, Mg^2+ always 1 mM) were calculated by EqCal software (Cambridge, UK) and added. […]

| SMILES | melting point [°C] | SC100 (Stimulating Concentration required for increasing the baseline current by 100%) (hSK3 channels) [µM] |
| --- | --- | --- |
| Cc1cccc(-c2nc(C)cc(NC3CCCCC3)n2)n1 | 59.6 to 65 |  |
| Cc1cc(Nc2ccc(Cl)cc2)nc(-c2cccc(Cl)n2)n1 [Compound 4A, (4-Chloro-phenyl)-[6-methyl-2-(6-chloro-pyridin-2-yl)-pyrimidin-4-yl]-amine] |  | 0.3 |
| Cc1cc(Nc2ccc(Cl)cc2)nc(-c2cccc(Cl)n2)n1 (as salt: hydrochloride) [Compound 4A, (4-Chloro-phenyl)-[6-methyl-2-(6-chloro-pyridin-2-yl)-pyrimidin-4-yl]-amine] | 239 |  |
